# Experimental data reported in PubChem BioAssay (NCI).
#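 Exposure lasted 48 hours, with cells grown in 96-well plates and compounds tested at five concentrations. GI50: concentration for 50% inhibition of growth. TGI is the concentration that stops growth completely.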
# Assays:
# Test in all cases: inhibition of tumour cell growth, NCI panel, 48 h
# ACHN renal = tested on: ACHN renal
# HCT-15 colon = tested on: HCT-15 colon
# SF-539 CNS = tested on: SF-539 CNS
# RXF 393 renal = tested on: RXF 393 renal
# SF-295 CNS = tested on: SF-295 CNS
# SK-MEL-2 melanoma = tested on: SK-MEL-2 melanoma
# SNB-19 CNS = tested on: SNB-19 CNS
SMILES,TGI (ACHN renal) [µM],TGI (HCT-15 colon) [µM],TGI (SF-539 CNS) [µM],TGI (RXF 393 renal) [µM],TGI (SF-295 CNS) [µM],TGI (SK-MEL-2 melanoma) [µM],TGI (SNB-19 CNS) [µM],GI50 (ACHN renal) [µM],GI50 (HCT-15 colon) [µM],GI50 (SF-539 CNS) [µM],GI50 (SF-295 CNS) [µM],GI50 (SK-MEL-2 melanoma) [µM],GI50 (SNB-19 CNS) [µM]
CN(C)C(=S)/N=c1\ssc(=Nc2ccccc2)n1-c1ccccc1,> 100,> 100,32,44.3,> 100,> 100,–,–,–,–,–,–,–
COc1ccc(OCC(=O)O)c2c1CCC(C)C2=O (stereo not given),> 100,> 100,> 100,–,> 100,> 100,> 100,–,–,–,–,–,–
Cc1cccc(C=NC23CC4CC(CC(C4)C2)C3)c1,> 100,> 100,> 100,> 100,> 100,> 100,> 100,–,–,–,–,–,–
O=C(Nc1ccccc1)N1C(c2ccccc2)=N[C@@H](c2ccccc2)[C@@H]1c1ccccc1,31.4,60.4,33.7,34.2,62.7,–,97.9,–,–,–,–,–,–
N.N.N.N.O=S([O-])[O-].[Co+3].[N-]=[N+]=[N-],> 100,> 100,> 100,–,> 100,> 100,> 100,> 100,> 100,> 100,> 100,> 100,> 100
CCOC(=N)CC(=O)Nc1ccccc1CC,> 100,> 100,> 100,> 100,> 100,> 100,> 100,–,–,–,–,–,–
C[C@@H]1CC2(C[C@@H](C)C3[C@@H](CC4(C)CCCC5C6=CC(O)(CC[C@]34C)OC6=CC(=O)OC5(C)C)O2)OC1=O (stereo not given in full),> 100,> 100,> 100,> 100,–,> 100,> 100,–,–,–,–,–,–
C=C(c1ccccc1)c1cc2c(=O)[nH]ccc2n1C,> 100,> 100,–,86.1,82.9,58.3,> 100,–,–,–,–,–,–
O=C(Cc1nc2ccccc2s1)C(=O)Nc1cccc(C(F)(F)F)c1,> 100,> 100,> 100,> 100,> 100,> 100,> 100,–,–,–,–,–,–
O=C(O)C1CC2C=CCC(C2)C1 (stereo not given),> 100,> 100,–,> 100,> 100,> 100,> 100,–,–,–,–,–,–
C/C(=C\c1ccccc1)C(=O)c1c(C)cc(C)cc1C,> 100,> 100,> 100,> 100,> 100,> 100,> 100,–,–,–,–,–,–
Cn1cnnc1Sc1c([N+](=O)[O-])nc(-c2ccc([N+](=O)[O-])cc2)n1C,33.7,–,33.2,–,> 100,29.8,> 100,–,–,–,–,–,–
Cc1nc(Nc2ccc(Cl)cc2)sc1C(=O)Nc1cccc2c(=O)[nH][nH]c(=O)c12,> 100,71.3,> 100,69.2,74.3,> 100,> 100,–,–,–,–,–,–
Nc1ccc(C(=O)N/C(=C\c2ccc3c(c2)OCO3)c2nc3ccccc3s2)cc1,27.2,23.4,31.4,27.9,30.3,28,28.7,–,–,–,–,–,–
COc1ccccc1/C=C(\NC(=O)c1ccccc1)c1nc2ccccc2[nH]1,> 100,> 100,> 100,> 100,–,> 100,> 100,–,–,–,–,–,–
NCCOCCOCC(=O)O,> 100,> 100,> 100,> 100,> 100,> 100,> 100,–,–,–,–,–,–
COc1cccc(C=NC23CC4CC(CC(C4)C2)C3)c1,> 100,> 100,> 100,> 100,> 100,> 100,> 100,–,–,–,–,–,–
COC(=O)C1=C(O)c2cc(OC)c(OC)c(OC)c2C(c2ccc3c(c2)OCO3)[C@@H]1C(=O)OC (stereo not given in full),> 100,> 100,5.52,6.26,13.4,> 100,–,–,–,–,–,–,–
COc1c2c(c(O)c3c4c(c(C)cc13)C1OC3(C(OC)OC5CC(C)(O)C(OC6CC(C)(O)C(O)C(C)O6)C(C)O5)OC1C(OC)(O4)C31CO1)C(=O)C(O)CC2OC1CC(C)(O)C(OC(C)=O)C(C)O1 (stereo not given),0.0924,1.58,< 0.01,< 0.01,< 0.023,< 0.01,0.739,–,–,–,–,–,–
CC(NC1CCCC[C@@H]1O)c1ccccc1 (stereo not given in full),> 100,> 100,–,> 100,> 100,> 100,> 100,–,–,–,–,–,–
c1ccc(N2CCN(CCN3CCc4c([nH]c5ccccc45)C3c3cccnc3)CC2)cc1 (stereo not given),> 100,> 100,> 100,–,> 100,–,> 100,–,–,–,–,–,–
C[C@]12CC[C@H](OC(=O)Nc3ccccc3)CC1=CC[C@@H]1C2CC[C@]2(C)/C(=N/OC(=O)Nc3ccccc3)CCC12 (stereo not given in full),> 100,3.31,> 100,–,> 100,> 100,> 100,–,–,–,–,–,–
